Where a SMILES comes first, the peptide text is derived from it.
Legend:
[1] = system: A(H1N1)pdm09 virus; type: cell-based
[2] = system: A(H1N1)pdm09 virus
[3] = system: A(H1N1)pdm09 virus; remark: listed apart in the source
[4] = system: SARS-CoV-2

SMILES | inhibition of P10 virus replication [1] | inhibition of P15 virus replication [1] | IC50 ([1]; read-out: IC50 against parent A(H1N1)pdm09 virus (P0)) [nM] | inhibition of P30 and P40 virus replication [1] | inhibition of viral replication, A(H1N1)pdm09 virus [2] [fold] | viral RNP release into nuclei [3] | inhibition of viral replication, SARS-CoV-2 [4] [fold]
CC[C@H](C)[C@H](NC(=O)[C@H](C)NC(=O)CNC(=O)[C@@H](N)CC(N)=O)C(=O)N[C@@H](CS)C(=O)N[C@@H](Cc1c[nH]c2ccccc12)C(=O)NCC(=O)N1CCC[C@H]1C(=O)N[C@@H](CS)C(=O)N1CCC[C@H]1C(=O)N[C@H](C(=O)N[C@@H](C)C(=O)N[C@@H](Cc1ccccc1)C(=O)N[C@@H](CCCNC(=N)N)C(=O)N[C@@H](CCC(N)=O)C(=O)N[C@H](C(=O)NCC(=O)N[C@@H](CC(N)=O)C(=O)N[C@@H](CS)C(=O)NCC(=O)N[C@@H](CCCNC(=N)N)C(=O)N[C@@H](Cc1ccccc1)C(=O)N[C@@H](CCCNC(=N)N)C(=O)N[C@H](C(=O)N[C@@H](CCCNC(=N)N)C(=O)N[C@@H](CS)C(=O)N[C@@H](CS)C(=O)N[C@@H](CCCNC(=N)N)C(=O)N[C@H](C(=O)N[C@@H](CCCNC(=N)N)C(=O)O)[C@@H](C)CC)C(C)C)[C@@H](C)CC)[C@@H](C)O [P9R] (H-NGAICWGPCPTAFRQIGNCGRFRVRCCRIR-OH) |  |  |  | could efficiently inhibit P30 and P40 virus replication | > 20 | could inhibit viral RNP release into nuclei | 1000

Source: patent US20240307487A1 (priority 2020, published 2024)
